For test [1], the system named is Jejunum. Description: Spasmolytic activity in rabbit jejunum assessed as relaxation of K+-induced muscle contraction at 10 ug/ml relative to calcium. It is filed as functional, Oryctolagus cuniculus.
For test [2], the system named is Jejunum. Description: Spasmolytic activity in rabbit jejunum assessed as relaxation of K+-induced muscle contraction at 30 ug/ml relative to calcium. Format: functional, Oryctolagus cuniculus.

The structures appear in SMILES notation.

For the molecule `CC(=O)O[C@H]1CC[C@]2(C)[C@H]3C=C[C@]45OC(=O)[C@@]6(CC[C@@H](C)[C@H](C)[C@H]64)CC[C@@]5(C)[C@]3(C)CC[C@H]2C1(C)C`, the Ratio in the test with Jejunum [1] was 6.2; with Jejunum [2], 17.51.
For `C[C@H]1[C@H](C)CC[C@@]23CC[C@]4(C)[C@@](C=C[C@@H]5[C@@]6(C)CC[C@H](OC=O)C(C)(C)[C@@H]6CC[C@]54C)(OC2=O)[C@H]13` [CAMALDULIN], in that order: 2.03 and 3.47.

(Values after ChEMBL document CHEMBL1155587, “Spasmolytic constituents from Eucalyptus camaldulensis var. obtusa leaves” (2000).)
